Consider four compounds from ChEMBL document CHEMBL1201862, “PubChem BioAssay data set” (2004).

Activity calls are given as the source filed them.

What all share (assay type): functional
For test [1], the target named is Lymphokine-activated killer T-cell-originated protein kinase (Homo sapiens, UniProt Q96KB5).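 Also: value comes from a kinase panel screen in which TOPK was one of the panel members.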
Test [2] concerns the target Cyclin-dependent kinase 19 (Homo sapiens, UniProt Q9BWU1). Kind of test: Navigating the Kinome. Panel member name: CDC2L6.
The target of test [3] is Serine/threonine-protein kinase TAO1 (Homo sapiens, UniProt Q7L7X3).
The target in test [4] is Mitogen-activated protein kinase kinase kinase kinase 4 (Homo sapiens, UniProt O95819).
In test [5] the target is STE20-like serine/threonine-protein kinase (Homo sapiens, UniProt Q9H2G2).
Test [6] has as its target Dual specificity tyrosine-phosphorylation-regulated kinase 1B (Homo sapiens, UniProt Q9Y463). Description: Navigating the Kinome. Panel member name: DYRK1B.
For test [7], the target named is Leukocyte tyrosine kinase receptor (Homo sapiens, UniProt P29376). Description: Navigating the Kinome. Panel member name: LTK.
Test [8] has as its target Proto-oncogene tyrosine-protein kinase receptor Ret (Homo sapiens, UniProt P07949).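 Also: measured within a kinome-wide profiling panel, RET as the panel member.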
The target of test [9] is Cyclin-dependent kinase 8 (Homo sapiens, UniProt P49336). Kind of test: Navigating the Kinome. Panel member name: CDK8.
Test [10] addresses Dual specificity tyrosine-phosphorylation-regulated kinase 1A (Homo sapiens, UniProt Q13627).
Test [11] addresses Macrophage-stimulating protein receptor (Homo sapiens, UniProt Q04912). Kind of test: Navigating the Kinome. Panel member name: MST1R.
The target of test [12] is Dual specificity protein kinase CLK4 (Homo sapiens, UniProt Q9HAZ1).
In test [13] the target is Leucine-rich repeat serine/threonine-protein kinase 2 (Homo sapiens, UniProt Q5S007).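 Also: value from a broad kinome-wide panel profiling study in which LRRK2 was one of the kinases tested.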
Test [14] deals with ALK tyrosine kinase receptor (Homo sapiens, UniProt Q9UM73).
Test [15] concerns the target Hepatocyte growth factor receptor (Homo sapiens, UniProt P08581).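 Also: kinase panel profiling across the kinome, with MET as the panel member.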
The target of test [16] is Tyrosine-protein kinase receptor TYRO3 (Homo sapiens, UniProt Q06418).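 Also: TYRO3 value obtained as one member of a kinome-wide profiling panel.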
In test [17] the target is Mitogen-activated protein kinase 13 (Homo sapiens, UniProt O15264).
Test [18] concerns the target Aurora kinase B (Homo sapiens, UniProt Q96GD4).
The target of test [19] is T1, Tyrosine-protein kinase JAK3 (Homo sapiens, UniProt P52333).
T1 sequence (P52333 whole entry): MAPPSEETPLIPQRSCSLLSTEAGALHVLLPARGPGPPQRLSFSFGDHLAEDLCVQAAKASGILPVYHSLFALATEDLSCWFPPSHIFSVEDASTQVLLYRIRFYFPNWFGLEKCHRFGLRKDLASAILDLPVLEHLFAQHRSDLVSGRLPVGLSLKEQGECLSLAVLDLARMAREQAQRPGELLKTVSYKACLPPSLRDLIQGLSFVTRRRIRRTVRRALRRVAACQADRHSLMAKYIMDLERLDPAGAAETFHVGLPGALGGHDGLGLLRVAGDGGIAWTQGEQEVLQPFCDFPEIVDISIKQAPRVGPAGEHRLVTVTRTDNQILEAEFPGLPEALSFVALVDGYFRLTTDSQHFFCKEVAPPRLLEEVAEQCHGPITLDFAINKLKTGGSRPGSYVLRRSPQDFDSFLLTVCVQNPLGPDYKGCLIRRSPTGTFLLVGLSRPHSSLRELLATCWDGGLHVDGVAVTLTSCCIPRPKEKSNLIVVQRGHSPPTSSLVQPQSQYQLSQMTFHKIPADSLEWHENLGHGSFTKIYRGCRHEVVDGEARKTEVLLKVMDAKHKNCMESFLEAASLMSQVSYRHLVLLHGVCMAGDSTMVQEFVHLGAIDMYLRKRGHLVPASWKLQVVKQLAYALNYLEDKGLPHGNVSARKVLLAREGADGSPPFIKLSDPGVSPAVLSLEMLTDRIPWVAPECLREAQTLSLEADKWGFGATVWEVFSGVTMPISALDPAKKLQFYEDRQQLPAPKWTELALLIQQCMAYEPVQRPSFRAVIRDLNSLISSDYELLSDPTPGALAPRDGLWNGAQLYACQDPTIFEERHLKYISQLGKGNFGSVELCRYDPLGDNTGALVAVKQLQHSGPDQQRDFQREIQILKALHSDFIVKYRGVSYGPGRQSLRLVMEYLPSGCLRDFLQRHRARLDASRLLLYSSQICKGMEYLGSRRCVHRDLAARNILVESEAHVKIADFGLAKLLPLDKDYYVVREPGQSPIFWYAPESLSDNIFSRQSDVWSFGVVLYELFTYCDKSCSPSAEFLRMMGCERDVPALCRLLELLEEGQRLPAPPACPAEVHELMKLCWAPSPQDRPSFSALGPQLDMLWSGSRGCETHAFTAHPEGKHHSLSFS

Test [20] addresses Testis-specific serine/threonine-protein kinase 1 (Homo sapiens, UniProt Q9BXA7).
In test [21] the target is Calcium/calmodulin-dependent protein kinase type II subunit delta (Homo sapiens, UniProt Q13557).
Test [22] deals with Mitogen-activated protein kinase 1 (Homo sapiens, UniProt P28482).
Test [23] deals with Tyrosine-protein kinase SYK (Homo sapiens, UniProt P43405).
The target in test [24] is Mitogen-activated protein kinase 9 (Homo sapiens, UniProt P45984).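 Also: value from a kinome panel profiling assay, MAPK9 panel entry.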
Test [25] deals with Interleukin-1 receptor-associated kinase 1 (Homo sapiens, UniProt P51617).
In test [26] the target is MAP kinase-activated protein kinase 5 (Homo sapiens, UniProt Q8IW41).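 Also: measured as one member of a kinome panel.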
In test [27] the target is Serine/threonine-protein kinase pim-2 (Homo sapiens, UniProt Q9P1W9).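 Also: value comes from a broad kinase panel profiling study in which PIM2 was one of the panel members.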
The target of test [28] is Tyrosine-protein kinase Fer (Homo sapiens, UniProt P16591).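 Also: FER tested as one member of a kinome panel.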
The target of test [29] is Tyrosine-protein kinase Lck (Homo sapiens, UniProt P06239).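 Also: lck was assayed as one member of a kinase panel.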
The target in test [30] is Tyrosine-protein kinase Srms (Homo sapiens, UniProt Q9H3Y6).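 Also: SRMS measured as one member of a kinome-wide kinase profiling panel.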
Test [31] deals with Testis-specific serine/threonine-protein kinase 2 (Homo sapiens, UniProt Q96PF2).
The target in test [32] is Receptor tyrosine-protein kinase erbB-2 (Homo sapiens, UniProt P04626). Kind of test: Navigating the Kinome. Panel member name: ERBB2.
Test [33] has as its target T2, Tyrosine-protein kinase ITK/TSK (Homo sapiens, UniProt Q08881).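 Also: affinity for ITK measured as one member of a broad kinase panel profiling binding across the kinome.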
T2 sequence (Q08881 whole entry): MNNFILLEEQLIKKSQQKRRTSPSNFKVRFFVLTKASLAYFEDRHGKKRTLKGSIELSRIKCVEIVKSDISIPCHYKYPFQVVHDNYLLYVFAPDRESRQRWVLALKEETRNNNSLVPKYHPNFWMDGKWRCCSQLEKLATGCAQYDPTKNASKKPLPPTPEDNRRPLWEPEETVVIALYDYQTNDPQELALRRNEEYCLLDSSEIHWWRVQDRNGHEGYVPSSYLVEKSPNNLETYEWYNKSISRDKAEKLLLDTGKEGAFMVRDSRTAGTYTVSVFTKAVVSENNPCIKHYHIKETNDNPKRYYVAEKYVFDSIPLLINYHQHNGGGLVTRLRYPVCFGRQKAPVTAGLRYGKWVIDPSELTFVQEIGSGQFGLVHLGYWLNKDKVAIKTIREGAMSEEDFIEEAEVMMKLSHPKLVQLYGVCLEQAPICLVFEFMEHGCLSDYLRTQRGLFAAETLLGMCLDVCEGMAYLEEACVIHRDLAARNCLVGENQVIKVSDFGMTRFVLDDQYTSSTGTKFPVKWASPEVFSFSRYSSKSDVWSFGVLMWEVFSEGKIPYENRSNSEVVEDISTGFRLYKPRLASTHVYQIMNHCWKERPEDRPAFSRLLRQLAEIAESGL

The target in test [34] is Tyrosine-protein kinase JAK2 (Homo sapiens, UniProt O60674).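 Also: JAK2 tested as one member of a kinase panel.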
Test [35] concerns the target Tyrosine-protein kinase Lyn (Homo sapiens, UniProt P07948).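 Also: lyn as one member of a kinase panel.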
Test [36] concerns the target Phosphorylase b kinase gamma catalytic chain, liver/testis isoform (Homo sapiens, UniProt P15735).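 Also: PHKG2 measured as one member of a kinome-wide kinase panel.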
Test [37] addresses Serine/threonine-protein kinase DCLK1 (Homo sapiens, UniProt O15075).
Test [38] deals with Serine/threonine-protein kinase D3 (Homo sapiens, UniProt O94806).
The target of test [39] is T3, Interleukin-1 receptor-associated kinase 4 (Homo sapiens, UniProt Q9NWZ3).
T3 sequence (Q9NWZ3 whole entry): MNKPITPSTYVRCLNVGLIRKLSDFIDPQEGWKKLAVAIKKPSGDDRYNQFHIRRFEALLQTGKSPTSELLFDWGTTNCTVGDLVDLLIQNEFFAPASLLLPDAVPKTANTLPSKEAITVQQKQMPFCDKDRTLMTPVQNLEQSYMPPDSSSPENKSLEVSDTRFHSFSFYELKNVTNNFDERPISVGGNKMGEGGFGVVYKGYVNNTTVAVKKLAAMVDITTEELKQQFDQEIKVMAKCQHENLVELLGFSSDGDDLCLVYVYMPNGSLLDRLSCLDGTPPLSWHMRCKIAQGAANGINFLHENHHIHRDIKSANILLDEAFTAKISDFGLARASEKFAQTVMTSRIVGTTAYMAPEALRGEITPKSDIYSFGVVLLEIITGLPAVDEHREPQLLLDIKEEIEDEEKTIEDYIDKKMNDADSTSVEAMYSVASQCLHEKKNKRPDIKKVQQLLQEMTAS

Sequence of Lymphokine-activated killer T-cell-originated protein kinase (Q96KB5 whole entry): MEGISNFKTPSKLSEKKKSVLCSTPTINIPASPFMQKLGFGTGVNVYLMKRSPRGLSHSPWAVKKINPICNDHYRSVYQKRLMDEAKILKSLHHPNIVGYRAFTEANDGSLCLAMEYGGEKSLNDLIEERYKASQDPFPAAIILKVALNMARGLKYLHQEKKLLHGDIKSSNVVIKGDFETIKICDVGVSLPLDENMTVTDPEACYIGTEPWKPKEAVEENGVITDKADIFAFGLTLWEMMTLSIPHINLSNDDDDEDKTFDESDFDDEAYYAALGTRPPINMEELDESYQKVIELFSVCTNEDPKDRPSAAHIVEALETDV
Sequence of Dual specificity protein kinase CLK4 (Q9HAZ1 whole entry): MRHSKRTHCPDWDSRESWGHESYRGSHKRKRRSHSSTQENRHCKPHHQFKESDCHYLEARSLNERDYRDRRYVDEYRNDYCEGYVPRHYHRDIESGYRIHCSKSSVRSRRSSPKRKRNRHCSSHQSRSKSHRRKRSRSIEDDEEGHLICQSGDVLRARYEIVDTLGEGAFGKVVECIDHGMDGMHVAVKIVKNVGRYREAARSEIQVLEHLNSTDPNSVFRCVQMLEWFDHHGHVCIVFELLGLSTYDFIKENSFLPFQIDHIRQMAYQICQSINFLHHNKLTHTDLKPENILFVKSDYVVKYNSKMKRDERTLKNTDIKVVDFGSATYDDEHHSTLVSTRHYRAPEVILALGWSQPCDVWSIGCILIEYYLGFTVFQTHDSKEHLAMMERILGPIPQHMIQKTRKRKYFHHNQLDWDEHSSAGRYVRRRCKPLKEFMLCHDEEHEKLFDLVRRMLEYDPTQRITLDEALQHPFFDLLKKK
Sequence of Serine/threonine-protein kinase pim-2 (Q9P1W9 whole entry): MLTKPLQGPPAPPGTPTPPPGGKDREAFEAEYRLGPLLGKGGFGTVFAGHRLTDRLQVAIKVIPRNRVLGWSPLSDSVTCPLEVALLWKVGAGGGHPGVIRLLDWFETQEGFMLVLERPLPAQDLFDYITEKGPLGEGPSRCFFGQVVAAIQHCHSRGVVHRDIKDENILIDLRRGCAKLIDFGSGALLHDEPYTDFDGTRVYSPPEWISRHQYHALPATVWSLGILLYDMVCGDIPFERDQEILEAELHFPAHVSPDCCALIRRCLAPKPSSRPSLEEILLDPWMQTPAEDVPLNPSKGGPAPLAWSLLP
Sequence of Receptor tyrosine-protein kinase erbB-2 (P04626 whole entry): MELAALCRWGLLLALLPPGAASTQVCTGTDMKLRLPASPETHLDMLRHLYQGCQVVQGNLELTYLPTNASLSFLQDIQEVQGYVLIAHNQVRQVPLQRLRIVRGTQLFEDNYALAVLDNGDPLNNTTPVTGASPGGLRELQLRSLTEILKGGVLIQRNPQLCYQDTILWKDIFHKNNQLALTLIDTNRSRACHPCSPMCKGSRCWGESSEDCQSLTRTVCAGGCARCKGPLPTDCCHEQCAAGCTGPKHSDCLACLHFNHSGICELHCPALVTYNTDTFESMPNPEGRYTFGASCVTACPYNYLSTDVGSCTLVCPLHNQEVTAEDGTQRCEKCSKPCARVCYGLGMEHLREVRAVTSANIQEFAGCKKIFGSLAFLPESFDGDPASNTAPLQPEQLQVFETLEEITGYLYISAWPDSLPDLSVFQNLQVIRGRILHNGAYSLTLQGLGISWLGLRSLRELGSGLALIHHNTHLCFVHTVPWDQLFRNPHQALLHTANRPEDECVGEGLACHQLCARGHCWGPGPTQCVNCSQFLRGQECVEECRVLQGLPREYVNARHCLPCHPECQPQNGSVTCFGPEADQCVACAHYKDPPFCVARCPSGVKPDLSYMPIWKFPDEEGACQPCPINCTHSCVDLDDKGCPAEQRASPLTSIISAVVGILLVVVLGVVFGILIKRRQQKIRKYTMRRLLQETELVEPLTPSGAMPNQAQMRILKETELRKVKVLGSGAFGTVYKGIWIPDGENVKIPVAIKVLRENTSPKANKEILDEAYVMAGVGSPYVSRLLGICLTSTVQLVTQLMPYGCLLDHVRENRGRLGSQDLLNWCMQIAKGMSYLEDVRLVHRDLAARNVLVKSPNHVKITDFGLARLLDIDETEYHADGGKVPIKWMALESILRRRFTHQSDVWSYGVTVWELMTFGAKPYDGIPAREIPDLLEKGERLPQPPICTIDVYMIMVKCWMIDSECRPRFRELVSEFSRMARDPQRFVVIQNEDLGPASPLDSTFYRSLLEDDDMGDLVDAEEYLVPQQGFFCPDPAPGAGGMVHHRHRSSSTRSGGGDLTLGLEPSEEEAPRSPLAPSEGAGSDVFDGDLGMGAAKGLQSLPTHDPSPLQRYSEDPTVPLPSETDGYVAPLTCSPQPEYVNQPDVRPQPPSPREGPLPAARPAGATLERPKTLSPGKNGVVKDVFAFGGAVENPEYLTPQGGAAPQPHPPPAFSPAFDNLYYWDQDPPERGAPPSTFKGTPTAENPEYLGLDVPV
Sequence of Tyrosine-protein kinase JAK2 (O60674 whole entry): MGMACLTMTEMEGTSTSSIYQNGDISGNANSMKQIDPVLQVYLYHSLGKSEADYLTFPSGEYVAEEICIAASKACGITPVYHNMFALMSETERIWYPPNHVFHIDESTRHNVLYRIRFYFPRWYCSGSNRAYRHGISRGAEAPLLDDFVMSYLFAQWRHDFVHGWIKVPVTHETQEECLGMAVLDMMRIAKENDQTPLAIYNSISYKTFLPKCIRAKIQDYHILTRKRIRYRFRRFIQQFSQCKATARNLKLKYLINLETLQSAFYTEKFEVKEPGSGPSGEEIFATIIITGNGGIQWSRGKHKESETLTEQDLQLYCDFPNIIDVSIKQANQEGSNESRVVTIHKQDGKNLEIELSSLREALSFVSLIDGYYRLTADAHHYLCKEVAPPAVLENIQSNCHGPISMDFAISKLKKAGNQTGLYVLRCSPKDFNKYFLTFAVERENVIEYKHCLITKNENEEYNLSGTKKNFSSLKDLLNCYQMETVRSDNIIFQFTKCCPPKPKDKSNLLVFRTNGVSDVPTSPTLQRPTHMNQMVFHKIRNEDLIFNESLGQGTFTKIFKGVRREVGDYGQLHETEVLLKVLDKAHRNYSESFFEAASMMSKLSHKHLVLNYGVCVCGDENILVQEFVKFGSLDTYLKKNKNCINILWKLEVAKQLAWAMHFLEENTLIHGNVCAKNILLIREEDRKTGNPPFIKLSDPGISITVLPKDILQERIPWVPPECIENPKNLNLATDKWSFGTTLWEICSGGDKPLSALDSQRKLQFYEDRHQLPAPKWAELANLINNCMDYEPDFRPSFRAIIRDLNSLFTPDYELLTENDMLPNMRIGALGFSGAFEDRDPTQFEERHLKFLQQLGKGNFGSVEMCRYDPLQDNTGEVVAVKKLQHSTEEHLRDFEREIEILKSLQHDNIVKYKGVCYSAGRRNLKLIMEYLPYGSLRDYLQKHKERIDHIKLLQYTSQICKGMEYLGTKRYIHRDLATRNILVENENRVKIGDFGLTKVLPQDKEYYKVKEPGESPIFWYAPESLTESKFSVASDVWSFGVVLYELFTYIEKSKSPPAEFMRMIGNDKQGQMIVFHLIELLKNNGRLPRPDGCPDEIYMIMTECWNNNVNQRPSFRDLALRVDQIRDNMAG
Sequence of STE20-like serine/threonine-protein kinase (Q9H2G2 whole entry): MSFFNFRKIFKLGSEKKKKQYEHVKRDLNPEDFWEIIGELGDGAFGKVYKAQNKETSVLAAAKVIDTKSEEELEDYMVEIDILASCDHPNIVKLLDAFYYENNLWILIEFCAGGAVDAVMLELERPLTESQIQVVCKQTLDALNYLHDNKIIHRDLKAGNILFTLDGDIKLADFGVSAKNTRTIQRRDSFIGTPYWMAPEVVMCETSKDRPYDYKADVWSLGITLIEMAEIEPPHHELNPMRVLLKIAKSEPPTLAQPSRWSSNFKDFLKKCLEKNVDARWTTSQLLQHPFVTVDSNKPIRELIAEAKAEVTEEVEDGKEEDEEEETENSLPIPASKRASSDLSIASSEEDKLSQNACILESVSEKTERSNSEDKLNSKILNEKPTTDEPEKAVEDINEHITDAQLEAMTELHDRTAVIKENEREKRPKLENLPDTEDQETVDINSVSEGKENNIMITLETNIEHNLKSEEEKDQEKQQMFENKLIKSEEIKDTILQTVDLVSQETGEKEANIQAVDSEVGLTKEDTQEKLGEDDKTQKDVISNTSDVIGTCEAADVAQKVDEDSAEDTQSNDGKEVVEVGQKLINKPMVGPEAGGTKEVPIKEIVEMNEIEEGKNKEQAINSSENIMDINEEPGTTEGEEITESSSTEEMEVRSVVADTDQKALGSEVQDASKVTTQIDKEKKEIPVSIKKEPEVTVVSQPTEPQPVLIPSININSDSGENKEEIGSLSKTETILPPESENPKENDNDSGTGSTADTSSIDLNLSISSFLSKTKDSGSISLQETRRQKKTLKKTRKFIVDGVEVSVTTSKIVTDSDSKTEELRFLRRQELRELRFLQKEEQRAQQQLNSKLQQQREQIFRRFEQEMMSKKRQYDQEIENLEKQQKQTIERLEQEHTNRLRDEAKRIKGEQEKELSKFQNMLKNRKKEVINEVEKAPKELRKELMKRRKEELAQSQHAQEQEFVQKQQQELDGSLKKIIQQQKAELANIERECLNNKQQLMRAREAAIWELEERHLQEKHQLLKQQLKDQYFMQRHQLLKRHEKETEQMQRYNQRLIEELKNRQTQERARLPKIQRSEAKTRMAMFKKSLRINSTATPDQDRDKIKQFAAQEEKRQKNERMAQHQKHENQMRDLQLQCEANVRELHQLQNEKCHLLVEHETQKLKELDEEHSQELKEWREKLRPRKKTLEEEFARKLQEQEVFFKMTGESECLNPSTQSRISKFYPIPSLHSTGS

What is called Ki is the equilibrium dissociation constant of an inhibitor or competing ligand from its target. On to `O=c1[nH]c2ccccc2n2cc(-c3ccc(Cl)cc3)cc12`, for which the Ki was 3160 nM (active) in test [1]; > 100000 nM (inactive) in test [2]; 3160 nM (active) in test [3]; 1580 nM (active) in [4]; 10000 nM (active) in [5].
Regarding `O=c1[nH]nc2c(-c3ccccc3)cccn12`, the Ki was 39800 nM (active) in [6]; 39800 nM (active) in test [7]; 50100 nM (active) in [8]; 63100 nM (active) in test [9]; 39800 nM (active) in test [10]; 63100 nM (active) in test [11]. For the same compound, the Ki is 10000 nM (active) in [12]; 39800 nM (active) in test [13]; 100000 nM (active) in test [14]; 79400 nM (active) in test [15]; 63100 nM (active) in test [16].
As for `COc1ccc2c(c1)C(=Cc1cnc[nH]1)C(=O)N2`, the Ki was > 7940 nM (inactive) in test [17]; 251 nM (active) in test [18]; 501 nM (active) in test [19]; > 1580 nM (inactive) in test [20]; 1580 nM (active) in test [21]; 501 nM (active) in [22]. The Ki is > 1580 nM (inactive) in test [23]; 1580 nM (active) in [24]; 251 nM (active) in [12]; 1580 nM (active) in [25]; > 1580 nM (inactive) in test [26]; > 1580 nM (inactive) in [27]. Further, the Ki is > 1580 nM (inactive) in [28]; 1580 nM (active) in test [29]; > 1580 nM (inactive) in [30]; > 1580 nM (inactive) in [31]; > 1580 nM (inactive) in [32]; > 1580 nM (inactive) in [33]. For the same compound, the Ki is 501 nM (active) in [34] and > 1580 nM (inactive) in test [35].
As for `CN(c1ccc2[nH]ncc2c1)c1c(NCc2ccc(Cl)cc2Cl)c(=O)c1=O`, the Ki was 5010 nM (active) in test [36]; 10000 nM (active) in [1]; 1260 nM (active) in [27]; 10000 nM (active) in test [37]; 6310 nM (active) in test [38]; 10000 nM (active) in [39].
